Patent US20220241308A1, “NEURONAL FUNCTION MODULATING AGENT” (University of Tsukuba, priority 2019, published 2022)

Legend:
Type in all cases: cell-based
[1] = test system: MAPK8 (mitogen-activated protein kinase 8); assay: Gene expression experiment (real-time PCR) in SH-SY5Y cells: MAPK8; conditions: 24 h
Description: (§1) SH-SY5Y cells were seeded in 100 mm-cell dishes (BD Biocoat) at concentrations of 3.7×10^5 cells/mL (10 mL/dish) and cultured for 24 h at 37° C. and 5% CO2. Culture medium used was F12/DMEM (Gibco) supplemented with 1% non-essential amino acids (Gibco), 15% FBS (Bio West), and 1% penicillin/streptomycin (Lonza). After 24 h, the culture medium was completely removed with an aspirator, 10 mL of culture medium Opti-MEM(Gibco) was added to each dish, and the cells were cultured for 24 h at 37° C. and 5% CO2. RNA was extracted from the culture cells and analyzed for the expression of genes described below by real-time PCR (designated as “Control” in FIGS. 2 to 8).
(§2) RNA extraction was performed using ISOGEN Reagent (Nippon Gene Co., Ltd.) in accordance with the protocol recommended by Nippo n Gene Co., Ltd. (see URL: https://www.nippongene.com/siyaku/product/extraction/tds/tds_isogen-rna-dna-protein.pdf). Real-time PCR was performed according to the protocol recommended by Thermo Fisher Scientific using a reagent kit for TaqMan Real-Time PCR (Thermo Fisher Scientific) (see URL: https://assets.thermofisher.com/TFS-Assets/LSG/manuals/4304449_TaqManPCRMM_UG.pdf).
(§3) 24 h after seeding 100 mm-cell dishes (BD Biocoat) with SH-SY5Y cells, the culture medium was completely removed with an aspirator, amyloid β protein (Beta-Amyloid 1-42, AnaSpec) was mixed with Opti-MEM (Gibco) so that the final concentration was 5 μM, 10 mL of the mixture was added to each dish, the cells were cultured for 24 h at 37° C. and 5% CO2, and RNA was extracted. Except for performing the procedure described above, gene expression was analyzed as described above (designated as “Aβ” in FIGS. 2 to 8).
(§4) 24 h after seeding 100 mm-cell dishes (BD Biocoat) with SH-SY5Y cells, the culture medium was completely removed with an aspirator, Sample 1 was mixed with culture medium Opti-MEM(Gibco) so that the final concentration was 12.56 μM, 9,990 μL of the mixture was added to each dish and allowed to stand for 10 min, amyloid β protein (Beta-Amyloid 1-42, AnaSpec) was mixed with Opti-MEM (Gibco) so that the final concentration was […], 10 μL of the mixture was added to each well, the cells were cultured for 24 h at 37° C. and 5% CO2, and RNA was extracted. Except for performing the procedure described above, Gene expression was analyzed as described above (designated as “Aβ+M3,5G” in FIGS. 2 to 8).
(§5) Except that Sample 2 was used instead of Sample 1, gene expression was analyzed as described above (designated as “Aβ+M” in FIGS. 2 to 8).
Except that Sample 3 was used instead of Sample 1, gene expression was analyzed as described above (designated as “Aβ+M3G” in FIGS. 2 to 8). […]

[2] = test system: MAP2K4 (mitogen-activated protein kinase 4); assay: Gene expression experiment (real-time PCR) in SH-SY5Y cells: MAP2K4; conditions: for expression of MAP2K4: 24 h
Description: as §1, §2, §3, §4, §5
(§6) Except that Sample 3 was used instead of Sample 1, gene expression was analyzed as described above (designated as “Aβ+M3G” in FIGS. 2 to 8).
(§7) 24 h after seeding 100 mm-cell dishes (BD Biocoat) with SH-SY5Y cells, the culture medium was completely removed with an aspirator, 10 mL of culture medium Opti-MEM(Gibco) mixed with Sample 1 was added to each dish, the cells were cultured for 24 h at 37° C. and 5% CO2, and RNA was extracted. Except for performing the procedure described above, gene expression was analyzed as described above (designated as “M3,5G” in FIGS. 2 to 8).

SH-SY5Y cells = assay: ATP production measurement experiment; conditions: 12.56 μM; 6 h, 12 h, 24 h; compared to “Control”
Description: Specifically, ATP production was measured according to the protocol recommended by Toyo B-NET (URL: https://search.cosmobio.co.jp/cosmo_search_p/search_gate2/docs/TIC_/CA10.20131125.pdf) using an ATP assay reagent (“Cell” ATP Assay reagent, Toyo B-NET) (designated as “Control” in FIG. 9).
Each well of a 96-well plate (BD Biocoat) was seeded with SH-SY5Y cells (model of neuronal cells, ATCC) at a concentration of 2×10^5 cells/mL (100 μL/well) and the cells were cultured at 37° C. and 5% CO2 for 24 h. Culture medium used was F12/DMEM (Gibco) supplemented with 1% non-essential amino acids (Gibco), 15% FBS (Bio West), and 1% penicillin/streptomycin (Lonza).
After 24 h, the culture medium was completely removed with an aspirator, 100 μL of culture medium Opti-MEM (Gibco) was added to each well, and the cells were cultured for 6 h, 12 h, and 24 h at 37° C. and 5% CO2. After each culturing time point, 100 μL of ATP assay reagent (“Cell” ATP Assay reagent, Toyo Ink)) was added to each well and mixed and the mixture was allowed to stand for reaction for 10 min at room temperature in dark conditions. […] Light emission after a lapse of a predetermined time was measured on a microplate reader (Sumitomo Dainippon Pharma) to find ATP production (designated as “Control” in FIG. 9). […]

CASP3 (caspase-3) = assay: Gene expression experiment (real-time PCR) in SH-SY5Y cells: CASP3; conditions: for expression of CASP3: 24 h
Description: as §1, §2, §3, §4, §5, §6, §7

[3] = 12.56 μM, amyloid β protein-treated cells, compared to “Aβ”
[4] = 12.56 μM, amyloid β protein-treated cells, compared to “Control”
[5] = Sample 1 alone, no amyloid β, compared to “Control”
[6] = amyloid β protein-treated cells, 12.56 μM, ranked against malvidin and malvidin-3-glucoside

## COc1cc(-c2[o+]c3cc(O)cc(OC4OC(CO)C(O)C(O)C4O)c3cc2OC2OC(CO)C(O)C(O)C2O)cc(OC)c1O (stereo not drawn) [M3,5G, Malvidin-3,5-diglucoside chloride]
[1]; [3]
  expression of MAPK8: significantly high
[1]; [4]
  expression of MAPK8: significantly high
[1]; [5]
  expression of MAPK8: significantly increased
[2]; [3]
  expression of MAP2K4: significantly high
[2]; [4]
  expression of MAP2K4: significantly high
[2]; [5]
  expression of MAP2K4: significantly increased
[2]; [6]
  activity in increasing the expression of MAP2K4: highest activity
SH-SY5Y cells
  ATP production: increased ATP production
CASP3 (caspase-3); [3]
  expression of CASP3: significantly low
CASP3 (caspase-3); [4]
  expression of CASP3: significantly low
CASP3 (caspase-3); [5]
  expression of CASP3: significantly decreased
CASP3 (caspase-3); [6]
  activity in decreasing the expression of CASP3: highest activity
